One series concerns Herpes-1. The experiment in a line: In vitro antiviral assay. The class given is cell-based. Conditions: Vero.
Series [1] relates to L-aspartic acid transcarbamylase (ATCase). Conditions: cited from earlier work.
A short description of series [2]: Cytotoxicity in Hep-2 cells. The note with it: human.

Consider `O=C(O)C[C@H](NC(=O)CP(=O)(O)O)C(=O)O` [PALA], for which, in the series on Herpes-1, the IC50 result is “no inhibitory activity and None”. Besides, the “Ka, avidity relative to carbamyl phosphate” value in series [1] was 1000 ×. In series [2], this compound returned a CC50 greater than 320 µg/mL.

What is called CC50 is the concentration that lowers cell viability or growth by half. A high value points to lower toxicity to the cells.

The record behind these values is US5491135A (priority 1993, dated 1996).
